# Assay results taken from ChEMBL document CHEMBL1201862, “PubChem BioAssay data set” (2004).
#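 Interpolation was linear, between the two tested concentrations surrounding the appropriate level; five concentrations were tested over 48 hours in 96-well plates. GI50 is the concentration that inhibits growth by half.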 Activity calls are given as the source filed them. Rule as the data show it: active = GI50 up to about 1.1 µM and inactive = higher.
# What was measured:
# Assay in all cases: NCI-60 cell line screen, 48 h
# [1] = tested on: 786-0
# [2] = tested on: A498
# [3] = tested on: A549
# [4] = tested on: ACHN
# [5] = tested on: CAKI-1
# [6] = tested on: CCRF-CEM
# [7] = tested on: COLO 205
# [8] = tested on: DLD-1
# [9] = tested on: DMS-114
# [10] = tested on: DMS-273
# [11] = tested on: EKVX
# [12] = tested on: HCC 2998
# [13] = tested on: HCT-116
# [14] = tested on: HCT-15
# [15] = tested on: HOP-18
# [16] = tested on: HOP-62
# [17] = tested on: HOP-92
# [18] = tested on: HT-29
# [19] = tested on: IGROV-1
# [20] = tested on: K562
# [21] = tested on: KM-20L2
# [22] = tested on: KM12
# [23] = tested on: LOX IMVI
# [24] = tested on: LXFL 529
# [25] = tested on: M14
# [26] = tested on: M19-MEL
# [27] = tested on: MOLT-4
# [28] = tested on: Malme-3M
# [29] = tested on: NCI-H226
# [30] = tested on: NCI-H23
# [31] = tested on: NCI-H460
# [32] = tested on: NCI-H522
# [33] = tested on: OVCAR-3
# [34] = tested on: OVCAR-4
# [35] = tested on: OVCAR-5
# [36] = tested on: OVCAR-8
# [37] = tested on: RPMI-8226
# [38] = tested on: RXF 393
# [39] = tested on: RXF 631
# [40] = tested on: SF-268
# [41] = tested on: SF-295
# [42] = tested on: SF-539
# [43] = tested on: SK-MEL-28
# [44] = tested on: SK-MEL-2
# [45] = tested on: SK-MEL-5
# [46] = tested on: SK-OV-3
# [47] = tested on: SN12C
# [48] = tested on: SNB-19
# [49] = tested on: SNB-75
# [50] = tested on: SNB-78
# [51] = tested on: SR
# [52] = tested on: SW-620
# [53] = tested on: TK-10
# [54] = tested on: U-251
# [55] = tested on: UACC-257
# [56] = tested on: UACC-62
# [57] = tested on: UO-31
# [58] = tested on: XF498
smiles,measurement,setting,value
C=C(C)[C@H]1CC[C@@]2(C)C(C1)[C@H](C)CC[C@@H]2O (stereo partly drawn),GI50,[1],> 100 µM (inactive)
same,GI50,[2],> 100 µM (inactive)
same,GI50,[3],> 100 µM (inactive)
same,GI50,[4],> 100 µM (inactive)
same,GI50,[5],> 100 µM (inactive)
same,GI50,[6],> 100 µM (inactive)
same,GI50,[7],> 100 µM (inactive)
same,GI50,[8],> 100 µM (inactive)
same,GI50,[9],> 100 µM (inactive)
same,GI50,[10],> 100 µM (inactive)
same,GI50,[11],> 100 µM (inactive)
same,GI50,[12],> 100 µM (inactive)
same,GI50,[13],> 100 µM (inactive)
same,GI50,[14],> 100 µM
same,GI50,[15],> 100 µM (inactive)
same,GI50,[16],> 100 µM (inactive)
same,GI50,[17],> 100 µM (inactive)
same,GI50,[18],70.5 µM (inactive)
same,GI50,[19],> 100 µM (inactive)
same,GI50,[20],> 100 µM (inactive)
same,GI50,[21],> 100 µM (inactive)
same,GI50,[22],> 100 µM (inactive)
same,GI50,[23],> 100 µM (inactive)
same,GI50,[24],> 100 µM (inactive)
same,GI50,[25],> 100 µM (inactive)
same,GI50,[26],> 100 µM (inactive)
same,GI50,[27],88.3 µM (inactive)
same,GI50,[28],> 100 µM (inactive)
same,GI50,[29],> 100 µM (inactive)
same,GI50,[30],> 100 µM (inactive)
same,GI50,[31],> 100 µM (inactive)
same,GI50,[32],47 µM (inactive)
same,GI50,[33],> 100 µM (inactive)
same,GI50,[34],> 100 µM (inactive)
same,GI50,[35],> 100 µM (inactive)
same,GI50,[36],> 100 µM (inactive)
same,GI50,[37],> 100 µM (inactive)
same,GI50,[38],> 100 µM (inactive)
same,GI50,[39],> 100 µM (inactive)
same,GI50,[40],> 100 µM (inactive)
same,GI50,[41],> 100 µM (inactive)
same,GI50,[42],> 100 µM (inactive)
same,GI50,[43],> 100 µM (inactive)
same,GI50,[44],> 100 µM (inactive)
same,GI50,[45],> 100 µM (inactive)
same,GI50,[46],> 100 µM (inactive)
same,GI50,[47],> 100 µM (inactive)
same,GI50,[48],> 100 µM (inactive)
same,GI50,[49],> 100 µM (inactive)
same,GI50,[50],> 100 µM (inactive)
same,GI50,[51],> 100 µM (inactive)
same,GI50,[52],> 100 µM (inactive)
same,GI50,[53],> 100 µM (inactive)
same,GI50,[54],> 100 µM (inactive)
same,GI50,[55],> 100 µM (inactive)
same,GI50,[56],> 100 µM (inactive)
same,GI50,[57],> 100 µM (inactive)
same,GI50,[58],> 100 µM (inactive)
